The text below walks through data of patent US4235912A, “Biologically active new 8β-hydrazinomethyl-ergoline derivatives and a process for the preparation thereof” (Richter Gedeon Vegyeszeti Gyar Rt, priority 1978, dated 1980).

Test [1] concerns serotonine-induced oedema. The test is described as follows: antiserotonine effect in vivo: inhibition of serotonine-induced plantar oedema. More on the design: species or system rat. The following applies: for ED50: Rattus norvegicus, 50 μg serotonine into plantar region of rats.
For test [2], the target named is T1, serotonine receptors (Rattus norvegicus, UniProt P14842).
T1 construct: isolated rat uterus sensitized with diethylstibestrol; from tissue; host or cells: isolated rat uterus, sensitized with diethylstilbestrol (printed 'diethylstibestrol')
T1 sequence (P14842 whole entry): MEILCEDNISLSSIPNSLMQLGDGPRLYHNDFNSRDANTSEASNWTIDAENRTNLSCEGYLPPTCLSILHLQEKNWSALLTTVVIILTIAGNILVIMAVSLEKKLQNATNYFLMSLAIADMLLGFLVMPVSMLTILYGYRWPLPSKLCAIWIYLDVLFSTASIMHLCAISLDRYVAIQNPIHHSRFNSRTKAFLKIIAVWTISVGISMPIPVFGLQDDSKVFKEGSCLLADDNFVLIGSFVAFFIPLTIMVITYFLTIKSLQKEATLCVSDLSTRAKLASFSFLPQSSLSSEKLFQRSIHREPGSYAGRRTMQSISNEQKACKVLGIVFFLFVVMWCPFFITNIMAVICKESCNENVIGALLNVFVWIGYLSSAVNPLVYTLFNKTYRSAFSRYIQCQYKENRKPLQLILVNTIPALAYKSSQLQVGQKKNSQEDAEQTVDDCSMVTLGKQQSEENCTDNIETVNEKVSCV
The test is described as follows: antiserotonine effect in vitro on isolated rat uterus sensitized with diethylstibestrol.

In test [3] the test system is reserpine-induced depression. The test is described as follows: antidepressant activity: reserpine-induced depression, maximum increase in body temperature. Format: in vivo. As to conditions: mice. How it is done: The new 8β-hydrazinomethyl-ergoline derivatives show antidepressant effects as tested on mice suffering from reserpine-induced depression. An intraperitoneal dosage of 5 mg/kg of reserpine was applied to induce depression. 18 hours later the body temperature of the animals was measured, 30 mg/kg of the compound under examination were administered intraperitoneally into the animals, and the body temperature of the animals was measured hourly for 5 hours. The maximum increase in temperature (i.e. the maximum body temperature measured after administering the compound minus the initial value) was considered as the measure of the antidepressant activity. In these tests Imipramine was used as a reference substance.

Structures are written as SMILES. “Also recorded” adds a separate entry of the source.

What is called ED50 is the dose at which the effect has come halfway, by size or by number of responders. A lower ED50 goes with greater potency. As for `CC(=O)NNC[C@@H]1C[C@@H]2c3cccc4[nH]cc(c34)C[C@H]2N(C)C1` [Example 4, 6-Methyl-8β-([N'-acetyl-hydrazino]-methyl)-ergoline], the values for the ED50 in test [1] (po) and in test [1] (sc) were 3 mg/kg and 0.3 mg/kg, respectively.
For the compound `CN(C)C(=O)NNC[C@@H]1C[C@@H]2c3cccc4[nH]cc(c34)C[C@H]2N(C)C1` [Example 6, 6-Methyl-8β-([N'-dimethylcarbamoyl-hydrazino]-methyl)-ergoline], the median effective dose (ED50) was 3 mg/kg in test [1] (po) and 0.05 mg/kg in test [1] (sc).
`CC(=O)NNC[C@@H]1C[C@@H]2c3cccc4c3c(cn4C)C[C@H]2N(C)C1` [Example 7, 1,6-Dimethyl-8β-([N'-acetyl-hydrazino]-methyl)-ergoline]: the values for the ED50 in test [1] (po) and in test [1] (sc) were 3 to 10 mg/kg and 0.03 mg/kg, respectively.
A word on the IC50: it is the concentration that gives 50% inhibition. For the compound `CN(C)C(=O)NNC[C@@H]1C=C2c3cccc4[nH]cc(c34)C[C@H]2N(C)C1` [Example 8, 6-Methyl-8β-([N'-dimethylcarbamoyl-hydrazino]-methyl)-ergol-9-ene], the IC50 in test [2] was 2.95 nM. The ED50 in test [1] (po) came out at 3 mg/kg; in test [1] (sc) it was 0.16 mg/kg.
Turning to `CC(=O)NNC[C@@H]1C=C2c3cccc4[nH]cc(c34)C[C@H]2N(C)C1` [Example 9, 6-Methyl-8β-([N'-acetyl-hydrazino]-methyl)-ergol-9-ene], in test [2], the IC50 is 3.22 nM. For the same compound, the ED50 turned out to be 0.78 mg/kg in test [1] (po) and 0.055 mg/kg in test [1] (sc). Moreover, the “inhibition of serotonine-induced oedema, in words” value in test [1] (parenteral and oral administration) is “outstandingly effective”.
Take `CNC(=S)NNC[C@@H]1C=C2c3cccc4[nH]cc(c34)C[C@H]2N(C)C1` [Example 14, 6-Methyl-8β-([N'-methylthiocarbamoyl-hydrazino]-methyl)-ergol-9-ene]: in test [3], the “antidepressant activity, in words” value is reported as “outstandingly effective; also recorded: superior to that of Imipramine”.
On to `CC[C@@H](CO)NC(=O)[C@@H]1C=C2c3cccc4c3c(cn4C)C[C@H]2N(C)C1` [Methysergide, 1-methyl lysergic acid butanolamide, reference compound], for which the ED50 in test [1] (po) was found to be 0.64 mg/kg; in test [1] (sc), 0.026 mg/kg.
